Results taken from US7754678B2, “Membrane penetrating peptides and uses thereof” (Aventis Pharmaceuticals Inc., priority 2000, dated 2010).

Key:
[1] = molecular target: T1, 5HT2A receptor (Homo sapiens, UniProt P28223); test: 5HT2A receptor activation, FLIPR calcium response; type: cell-based; conditions: 10 μM, 5HT2A receptor CHO stable cell line
T1 construct: expressed in transfected cells
Description: FIG. 4. Activation of serotonin 5HT2A receptor with hPER1-MPP fusion peptide. (A). hPER1-MPP and TAT-PTD peptides were synthesized alone or in fusion with either the first intracellular loop I1 ([…] (SEQ ID NO:10)), or the C-terminal Transmembrane 7 domain. TM7 ([…] (SEQ ID NO:11) derived from the 5HT2A receptor, genebank accession number, M86841). Receptor activities was assayed using standard FLIPR analysis and measuring endogenous and exogenous Ca^+2 levels. Peptide designations are as follows: T (TAT-PTD), P (hPER1-MPP), I1 (intracellular loop 1), T-I1 (TAT-PTD-I1), P-I1 (hPER1-MPP-I1), TM7 (C-terminal domain), TTM7 (TAT-PTD-TM7), PTM7 (hPER1-MPP-TM7), and S (Serotonin).
FIG. 4 (B). Dose response of PTM7 (closed circles) and TTM7 (closed diamonds) peptides. Serotonin (control, open triangle) was used at the maximum receptor stimulatory concentration of 10 μM.
One of the features of MPPs is their ability to cargo proteins and peptides into cells. We were successful in coupling hPER1-MPP to B-galactosidase and in delivering the fusion protein into cells in culture (data not shown), as has been described by Fawells et al., 1994 (Fawell, S., et al., Proc Natl Acad Sci USA. 91, 664-668 (1994)). However, to further extend the functional utility of MPPs, we tested hPER1-MPP in fusion with a physiologically relevant and biologically active peptide. […]

[2] = system: CHO cells; test: Membrane penetration (peptide internalization) assay of biotinylated synthetic peptides; type: cell-based, Chinese Hamster; conditions: for intracellular distribution / staining of internalized peptide: Streptavidin ALEXA or anti-Flag mAb staining; for cells penetrated by peptide: peptide 10 μM added to cells in culture
Description: FIG. 2. Membrane penetration assay in CHO cells. N-terminal biotinylated synthetic peptides hPER1-PTD, Flag-hPER1-PTD, Flag-TAT-PTD (positive control), and Flag-Flag (negative control) were assayed for their ability to penetrate cellular membranes in living CHO cells in culture. The subcellular localization of internalized peptides was determined using a two color staining method, either Streptavidin-Alexa 594 (red) or anti-flag mAb. The third column is an overlay. Confocal microscopy was employed to further confirm intracellular and intranuclear localization. Single section of confocal imaging is shown.
FIG. 3. Alanine scanning of hPER1-PDTs. Biotinylated hPER1-NPDs were synthesized with a single amino acid residue substitution at the indicated position with an alanine and assayed for membrane penetration in CHO cells. Cells were incubated for 10 minutes at 37 C. at a peptide concentration of 10 μM followed by washing, fixation, permeablization, and then detected with labeled Streptavidin Alexa-594 (red, 2 μg/ml) for 15 minutes at the RT. Control peptide was from hPER1 N-terminal amino acids residues 486-500.
Peptides are synthesized by a commercial vendor (Bio Synthesis). For peptides internalization, cells are plated into two-well Lab-Tek coverslips (Nunc Inc.) at a density of 2×10^5 cells/well and cultured overnight. The peptides are dissolved in DMSO diluted to indicated concentration with PBS. The cell monolayers were incubated with the appropriate peptide/PBS solution at 1 μM standard concentration for 10 min at room temperature (RT) unless otherwise specified. For experiments at 4° C., the protocol was the same except that all incubations were performed at 4° C. until the end of the fixation procedure.
The peptides are assayed for their ability to penetrate cellular membranes. Intracellular localization is assayed by direct staining with labeled Streptavidin ALEXA reagents or by indirect staining with anti-Flag mAb followed by the addition of labeled secondary antibodies.

[3] = system: CHO cells; test: β-galactosidase cargo delivery into cells (X-gal staining); type: cell-based, Chinese Hamster; conditions: chemically linked conjugates
From the text: (§1) FIG. 6. hPER-PTD cargo's β-Galactosidase into cells: At least one feature of HIV TAT transducing peptide is its ability to cargo proteins into cells and tissues. We therefore sought to determine if hPER1 transducing peptide could cargo beta galactosidase into cells. To perform this experiment, we followed a protocol by Frankel et al. 1989 (19):7397-401, whereby, we chemically linked hPER1-PTD or hPER-PTD R7A to full length β-galactosidase and assayed for the ability of these conjugates and beta-galactosidase protein alone to transduce into CHO cells.
as §1, with “At” for “FIG. 6. hPER-PTD cargo's β-Galactosidase into cells: At”, “al. PNAS” for “al.”, “R7A (with Ala replacing Arg^7)” for “R7A”

T1 sequence (P28223 whole entry): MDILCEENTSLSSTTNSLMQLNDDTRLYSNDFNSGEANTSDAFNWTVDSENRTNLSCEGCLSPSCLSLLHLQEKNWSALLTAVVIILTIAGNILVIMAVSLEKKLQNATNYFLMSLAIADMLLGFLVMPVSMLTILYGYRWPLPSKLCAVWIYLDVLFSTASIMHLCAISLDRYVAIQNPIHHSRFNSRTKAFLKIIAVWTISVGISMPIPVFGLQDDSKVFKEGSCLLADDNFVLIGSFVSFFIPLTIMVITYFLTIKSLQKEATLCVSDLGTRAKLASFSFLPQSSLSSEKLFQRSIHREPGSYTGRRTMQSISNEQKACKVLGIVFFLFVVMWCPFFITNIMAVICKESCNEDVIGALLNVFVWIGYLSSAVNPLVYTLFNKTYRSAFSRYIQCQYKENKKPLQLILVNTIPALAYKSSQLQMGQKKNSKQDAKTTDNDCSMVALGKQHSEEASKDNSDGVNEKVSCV

In the case of `NCCc1c[nH]c2ccc(O)cc12` [serotonin], the “5HT2A receptor signaling, calcium response” value [1] is reported as “receptor signaling is activated”.

GDPKKKRKV [SV40, reference compound] was tested, and the “membrane penetrating ability in words (relative to wild-type hPER1-MPP, TAT-PTD or negative control)” value [2] was “not all NLSs are PTDs”.

With GKHRHERGHHRDRRER [Cyclin L ania-6a] the “membrane penetrating ability in words (relative to wild-type hPER1-MPP, TAT-PTD or negative control)” value [2] was “not all NLSs are PTDs”.

With GKKKRKLSNRESAKRSR [beta Zip TF] the “membrane penetrating ability in words (relative to wild-type hPER1-MPP, TAT-PTD or negative control)” value [2] was “not all NLSs are PTDs”.

In the case of GKKTGKNRKLKSKRVKPRD [hPER2], the “membrane penetrating ability in words (relative to wild-type hPER1-MPP, TAT-PTD or negative control)” value [2] is reported as “not all NLSs are PTDs”.

For “GMDYKDDDDKGMDYKDDDDK [Flag, reference compound]”, the “intracellular distribution / staining of internalized peptide” value (from here on “intracellular distribution / staining”) [2] was “only barely discernible background staining”.

In the case of GMDYKDDDDKGSRRHHCRSKAKRSHH [Flag-hPER1], the “intracellular distribution / staining” value [2] is reported as “diffusely distributed throughout the cytoplasm, but concentrated within subnuclear domains” and the “cells penetrated by peptide” value [2] is reported as 100%.

For “GMDYKDDDDKGYGRKKKRRQRRR [Flag-TAT, reference compound]”, the “intracellular distribution / staining” value [2] was “diffusely distributed throughout the cytoplasm, but concentrated within subnuclear domains” and the “cells penetrated by peptide” value [2] was 100%.

For GRRERNKMAAAKCRNRRR [C-FOS], the “membrane penetrating ability in words (relative to wild-type hPER1-MPP, TAT-PTD or negative control)” value [2] was “not all NLSs are PTDs”.

“KTYRSAFSRYIQYKENKKPLQLI [TM7, C-terminal Transmembrane 7 domain peptide of the 5HT2A receptor]” was tested, and the “5HT2A receptor signaling, calcium response” value [1] was “TM7 alone nor any of the other peptides were able to generate a calcium response”.

In the case of “R R H H C R S K A K R S R (RRHHCRSKAKRSR) [hPER1-PTD13]”, the “membrane penetrating ability in words (relative to wild-type hPER1-MPP, TAT-PTD or negative control)” value [2] is reported as “little overall effect on the positive membrane penetrating potential”.

“S R R H H C A S K A K R S R H H (SRRHHCASKAKRSRHH) [R7A]” was tested, and the “membrane penetrating ability in words (relative to wild-type hPER1-MPP, TAT-PTD or negative control)” value [2] was “reduced the detectable cytological signal to that observed for the negative control peptides”.

For “SRRHHCRSKAKRSRHH [hPER1-MPP, N-terminally biotinylated peptide of hPER1 amino acids 830-845]”, the “membrane penetrating ability in words (relative to wild-type hPER1-MPP, TAT-PTD or negative control)” value [2] was “efficiencies similar to the TAT-PTD peptide”, the time of internalization [2] was no more than 5 min and the “intracellular distribution / staining” value [2] was “diffusely distributed throughout the cytoplasm, but concentrated within subnuclear domains”. For the same compound, the “cells penetrated by peptide” value [2] was 100%.

With “β-galactosidase protein: full length β-galactosidase alone” the “delivery of β-galactosidase into cells (enzymatic activity, blue color after X-gal)” value [3] was “no blue staining reactivity”.
